Test results: patent publication US20120165319A1, “INHIBITORS OF INTERLEUKIN-1 BETA CONVERTING ENZYME” (VERTEX PHARMACEUTICALS INCORPORATED, priority 1995, published 2012)
Where two headings read alike, the source gives them in different places.

Columns and labels:
[1] = test system: IL-1β, human peripheral blood mononuclear cells (PBMC); test: PBMC cell assay: IL-1β assay with human PBMC or enriched adherent mononuclear cells, LPS-stimulated; format: cell-based
Text: IL-1β Assay with a Mixed Population of Human Peripheral Blood Mononuclear Cells (PBMC) or Enriched Adherent Mononuclear Cells
Processing of pre-IL-1β by ICE can be measured in cell culture using a variety of cell sources. Human PBMC obtained from healthy donors provides a mixed population of lymphocyte subtypes and mononuclear cells that produce a spectrum of interleukins and cytokines in response to many classes of physiological stimulators. Adherent mononuclear cells from PBMC provides an enriched source of normal monocytes for selective studies of cytokine production by activated cells.
An initial dilution series of test compound in DMSO or ethanol is prepared, with a subsequent dilution into RPMI-10% FBS media (containing 2 mM L-glutamine, 10 mM HEPES, 50 U and 50 ug/ml pen/strep) respectively to yield drugs at 4× the final test concentration containing 0.4% DMSO or 0.4% ethanol. The final concentration of DMSO is 0.1% for all drug dilutions. A concentration titration which brackets the apparent Ki for a test compound determined in an ICE inhibition assay is generally used for the primary compound screen.
Generally 5-6 compound dilutions are tested and the cellular component of the assay is performed in duplicate, with duplicate ELISA determinations on each cell culture supernatant.
PBMC Isolation and IL-1 Assay:
Buffy coat cells isolated from one pint human blood (yielding 40-45 ml final volume plasma plus cells) are diluted with media to 80 ml and LeukoPREP separation tubes (Becton Dickinson) are each overlaid with 10 ml of cell suspension. After 15 min centrifugation at 1500-1800×g, the plasma/media layer is aspirated and then the mononuclear cell layer is collected with a Pasteur pipette and transferred to a 15 ml conical centrifuge tube (Corning). Media is added to bring the volume to 15 ml, gently mix the cells by inversion and centrifuge at 300×g for 15 min. Resuspend the PBMC pellet in a small volume of media, count cells and adjust to 6×10^6 cells/ml.
For the cellular assay, 1.0 ml of the cell suspension is added to each well of a 24-well flat bottom tissue culture plate (Corning), 0.5 ml test compound dilution and 0.5 ml LPS solution (Sigma #L-3012; 20 ng/ml solution prepared in complete RPMI media; final LPS concentration 5 ng/ml). The 0.5 ml additions of test compound and LPS are usually sufficient to mix the contents of the wells. Three control mixtures are run per experiment, with either LPS alone, solvent vehicle control, and/or additional media to adjust the final culture volume to 2.0 ml. The cell cultures are incubated for 16-18 hr at 37° C. in the presence of 5% CO2.
At the end of the incubation period, cells are harvested and transferred to 15 ml conical centrifuge tubes. After centrifugation for 10 min at 200×g, supernatants are harvested and transferred to 1.5 ml Eppendorf tubes. It may be noted that the cell pellet may be utilized for a biochemical evaluation of pre-IL-1β and/or mature IL-1β content in cytosol extracts by western blotting or ELISA with pre-IL-1β specific antisera.
Isolation of Adherent Mononuclear Cells:
PBMC are isolated and prepared as described above. Media (1.0 ml) is first added to wells followed by 0.5 ml of the PBMC suspension. After a one hour incubation, plates are gently shaken and nonadherent cells aspirated from each well. Wells are then gently washed three times with 1.0 ml of media and final resuspended in 1.0 ml media. The enrichment for adherent cells generally yields 2.5−3.0×10^5 cells per well. The addition of test compounds, LPS, cell incubation conditions and processing of supernatants proceeds as described above.
We have used Quantikine kits (R&D Systems) for measurement of mature IL-1β. Assays are performed according to the manufacturer's directions. Mature IL-1β levels of about 1-3 ng/ml in both PBMC and adherent mononuclear cell positive controls are observed. […]

IL-1β, human whole blood = test: Whole blood assay for IL-1β production; format: cell-based; conditions: read-out: Whole human blood IC50
Experimental: The whole blood assay is a simple method for measuring the production of IL-1b (or other cytokines) and the activity of potential inhibitors. The complexity of this assay system, with its full complement of lymphoid and inflammatory cell types, spectrum of plasma proteins and red blood cells is an ideal in vitro representation of human in vivo physiologic conditions.
Pyrogen-free syringes (˜30 cc) Pyrogen-free sterile vacuum tubes containing lyophilized Na2EDTA (4.5 mg/10 ml tube) Human whole blood sample (˜30-50 cc) 1.5 ml eppendorf tubes Test compound stock solutions (˜25 mM in DMSO or other solvent) Endotoxin-free sodium chloride solution (0.9%) and HBSS Lipopolysaccharide (Sigma; Cat. # L-3012) stock solution at 1 mg/ml in HBSS
IL-1β ELISA Kit (R & D Systems; Cat # DLB50)
TNFα ELISA Kit (R & D Systems; Cat # DTA50)
Whole Blood Assay Experimental Procedure:
Set incubator or water bath at 30° C. Aliquot 0.25 ml of blood into 1.5 ml eppendorf tubes. Note: be sure to invert the whole blood sample tubes after every two aliquots. Differences in replicates may result if the cells sediment and are not uniformly suspended. Use of a positive displacement pipette will also minimize differences between replicate aliquots.
Prepare drug dilutions in sterile pyrogen-free saline by serial dilution. A dilution series which brackets the apparent Ki for a test compound determined in an ICE inhibition assay is generally used for the primary compound screen.
Add 25 μl test compound dilution or vehicle control and gently mix the sample. Then add 5.0 μl LPS solution (250 ng/ml stocked prepared fresh: 5.0 ng/ml final concentration LPS), and mix again. Incubate the tubes at 30° C. in a water bath for 16-18 hr with occasional mixing. Alternatively, the tubes can be placed in a rotator set at 4 rpm for the same incubation period. This assay should be set up in duplicate or triplicate with the following controls: negative control—no LPS; positive control—no test inhibitor; vehicle control—the highest concentration of DMSO or compound solvent used in the experiment. Additional saline is added to all control tubes to normalize volumes for both control and experimental whole blood test samples
After the incubation period, whole blood samples are centrifuged for 10 minutes at ˜2000 rpm in the microfuge, plasma is transferred to a fresh microfuge tube and centrifuged at 1000×g to pellet residual platelets if necessary. Plasma samples may be stored frozen at −70° C. prior to assay for cytokine levels by ELISA.
We have used R & D Systems (614 McKinley Place N.E. Minneapolis, Minn. 55413) Quantikine kits for measurement of IL-1β and TNF-α. The assays are performed according to the manufacturer's directions.
We have observed IL-1β levels of ˜1-5 ng/ml in positive controls among a range of individuals. A 1:200 dilution of plasma for all samples has been sufficient in our experiments for ELISA results to fall on the linear range of the ELISA standard curves. It may be necessary to optimize standard dilutions if you observe differences in the whole blood assay. Nerad, J. L. et al., J. Leukocyte Biol., 52, pp. 687-692 (1992).

ICE = target: T1, ICE (Homo sapiens, UniProt P29466); test: Enzyme assay with UV-visible substrate (visible ICE assay, Succinyl-Tyr-Val-Ala-Asp-pNitroanilide); format: biochemical
T1 sequence (P29466 120-297 limits assumed): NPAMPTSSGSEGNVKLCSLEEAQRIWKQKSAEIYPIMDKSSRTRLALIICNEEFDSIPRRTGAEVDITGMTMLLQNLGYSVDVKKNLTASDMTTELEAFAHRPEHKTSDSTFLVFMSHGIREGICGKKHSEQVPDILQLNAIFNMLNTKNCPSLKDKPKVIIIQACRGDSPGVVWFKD
T1 sequence (P29466 317-404 limits assumed): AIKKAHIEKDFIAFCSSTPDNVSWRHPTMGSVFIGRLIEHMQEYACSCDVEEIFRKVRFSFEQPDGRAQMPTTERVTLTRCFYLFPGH
Summary of the method: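 Colorimetric caspase-1 activity: 15 min enzyme-inhibitor preincubation (RT), then Suc-Tyr-Val-Ala-Asp-pNA; 405-603 nm kinetics, 20 min, 37° C. Ki from rate fitting.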

[2] = Homo sapiens, PBMC, * = values obtained upon reassay
[3] = Homo sapiens, * = values obtained upon reassay
[4] = * = values obtained upon reassay

Ki (ICE; Table 27)	IC50 (IL-1β, human whole blood; Homo sapiens, Table 27)	Compound	also measured
–	–	COc1cccc2oc(C(=O)[C@H](CC(=O)O)NC(=O)[C@@H]3CCCN4C(=O)CC[C@H](NC(=O)CCc5ccccc5)C(=O)N34)nc12 [Compound 135b]	IC50 [1, 2]: 1.6 µM; IC50 (IL-1β, human whole blood; [3]): 1.7 µM
–	–	O=C[C@H](CC(=O)O)NC(=O)[C@@H]1CCCN2C(=O)CC[C@H](NC(=O)c3cc(Cl)cc(Cl)c3)C(=O)N12 [Compound 214j, [3S(1S,9S)]3-(9-(3,5-Dichlorobenzoyl)amino-6,10-dioxo-1,2,3,4,7,8,9,10-octahydro-6H-pyridazino[1,2-a][1,2]diazepine-1-carboxamido)-4-oxobutanoic acid]	Ki (ICE; Table 17): 0.0042 µM; IC50 ([1]; Homo sapiens, PBMC, Table 17): 2.5 µM; IC50 (IL-1β, human whole blood; Homo sapiens, Table 17): 6 µM
–	–	O=C(O)CC(NC(=O)[C@@H]1CCCN2C(=O)CC[C@H](NC(=O)c3ccccc3)C(=O)N12)C(=O)COCc1ccccc1Cl (stereo partly drawn) [Compound 227e]	Ki (ICE; Table 5): 0.007 µM; IC50 [1, 2]: 0.234 µM; IC50 (IL-1β, human whole blood; [3]): 0.55 µM
–	–	CC(=O)N[C@H]1CCC(=O)N2CCC[C@@H](C(=O)N[C@@H](CC(=O)O)C(=O)COc3cccnc3)N2C1=O [Compound 283d, [3S(1S,9S)]3-(9-Acetamido-6,10-dioxo-1,2,3,4,7,8,9,10-octahydro-6H-pyridazino[1,2-a][1,2]diazepine-1-carboxamido)-4-oxo-5-(3-pyridyloxy)pentanoic acid]	IC50 ([1]; Homo sapiens, PBMC, Table 17): > 8 µM; IC50 (IL-1β, human whole blood; Homo sapiens, Table 17): 10 µM
–	–	CC(C)(C)OC(=O)C[C@@H](C=NOCc1c(Cl)cccc1Cl)NC(=O)[C@@H]1CCCN2C(=O)CC[C@H](NC(=O)c3ccccc3)C(=O)N12 [Compound 307a, [3S(1S,9S)3-(9-Benzoylamino-6,10-dioxo-1,2,3,4,7,8,9,10-octahydro-6H-pyridazino-[1,2-a][1,2]diazapine-1-carboxamido)-amino]-4-oxobutanoicacid t-butyl ester, O-(2,6-dichlorophenylmethyl)oxime]	Ki (ICE; Table 5): 0.055 µM; IC50 [1, 4]: 14.5 µM; IC50 (IL-1β, human whole blood; [4]): 16 µM
–	–	COc1ccccc1C(=O)N[C@H]1CCC(=O)N2CCC[C@@H](C(=O)N[C@H](C=O)CC(=O)O)N2C1=O [Compound 405]	Ki (ICE; Table 5): 0.0065 µM; IC50 [1, 2]: 1.7 µM; IC50 (IL-1β, human whole blood; [3]): 2.1 µM
–	–	O=C[C@H](CC(=O)O)NC(=O)[C@@H]1CCCN2C(=O)CC[C@H](NC(=O)c3ccccc3Cl)C(=O)N12 [Compound 406]	Ki (ICE; Table 5): 0.004 µM; IC50 [1, 2]: 1.65 µM; IC50 (IL-1β, human whole blood; [3]): 2.3 µM
0.0013 µM	5 µM	Cc1cc(C(=O)N[C@H]2CN(C(=O)COc3ccccc3)c3ccccc3N(CC(=O)N[C@H](C=O)CC(=O)O)C2=O)cc(C)c1O [Compound 721]	–
0.005 µM	5 µM	CCOC(=O)N1C[C@H](NC(=O)c2cc(C)c(O)c(C)c2)C(=O)N(CC(=O)N[C@H](C=O)CC(=O)O)c2ccccc21 [Compound 722]	–
0.0023 µM	2 µM	COC(=O)N1C[C@H](NC(=O)c2cc(C)c(O)c(C)c2)C(=O)N(CC(=O)N[C@H](C=O)CC(=O)O)c2ccccc21 [Compound 723]	–
0.002 µM	1.8 µM	CCC(=O)N1C[C@H](NC(=O)c2cc(C)c(O)c(C)c2)C(=O)N(CC(=O)N[C@H](C=O)CC(=O)O)c2ccccc21 [Compound 724]	–
0.0037 µM	3 µM	Cc1cc(C(=O)N[C@H]2CN(C(=O)C(C)C)c3ccccc3N(CC(=O)N[C@H](C=O)CC(=O)O)C2=O)cc(C)c1O [Compound 725]	–
0.05 µM	2.3 µM	Cc1cc(C(=O)N[C@H]2CNc3ccccc3N(CC(=O)N[C@H](C=O)CC(=O)O)C2=O)cc(C)c1O [Compound 727]	–
0.028 µM	2.8 µM	CCOC(=O)C(=O)N1C[C@H](NC(=O)c2cc(C)c(O)c(C)c2)C(=O)N(CC(=O)N[C@H](C=O)CC(=O)O)c2ccccc21 [Compound 729]	–
0.09 µM	8 µM	CC(=O)N[C@@H](CC(=O)O)C(=O)N[C@H]1CN(C(=O)CO)c2ccccc2N(CC(=O)N[C@H](C=O)CC(=O)O)C1=O [Compound 730]	–
0.005 µM	1.8 µM	COc1cc(C(=O)N[C@H]2CN(C(=O)CO)c3ccccc3N(CC(=O)N[C@H](C=O)CC(=O)O)C2=O)cc(OC)c1O [Compound 732]	–
0.005 µM	1.5 µM	COc1cc(C(=O)N[C@H]2CN(C(=O)CO)c3ccccc3N(CC(=O)N[C@H](C=O)CC(=O)O)C2=O)ccc1O [Compound 733]	–
0.009 µM	6 µM	O=C[C@H](CC(=O)O)NC(=O)CN1C(=O)[C@@H](NC(=O)c2nccc3ccccc23)CN(C(=O)Cc2cccnc2)c2ccccc21 [Compound 734]	–
0.006 µM	10 µM	CS(=O)(=O)CC(=O)N1C[C@H](NC(=O)c2nccc3ccccc23)C(=O)N(CC(=O)N[C@H](C=O)CC(=O)O)c2ccccc21 [Compound 735]	–
–	–	COc1c(Cl)cc(C(=O)N[C@H]2CN(C(=O)CO)c3ccccc3N(CC(=O)N[C@H](C=O)CC(=O)O)C2=O)cc1Cl [Compound 918]	Ki (ICE; Table 17): 0.007 µM; IC50 (IL-1β, human whole blood; Homo sapiens, Table 17): 1.15 µM
